Like-named read-outs stand apart in the source and are kept apart here.
Experiments:
human STING (WT) = human STING (WT) (Homo sapiens (Human), UniProt Q86WV6, H232R); assay: Differential scanning fluorimetry (DSF), huSTING (WT); type: binding; details: for ΔTm at 100 µM: read-out: DSF huSTING (WT) ΔTm (° C.)
Method: (§1) Biophysical experiments were performed with three different recombinant human STING protein variants designated according to allelic nomenclature of Yi et al., (2013). […] These were ligated into a modified pET43a E. coli expression vector designed to encode N-terminal His tag followed by tobacco etch virus protease (TEV) cleavage site and a STING gene sequence. The resulting protein sequences for the three allelic variants are listed below: […] Cultures were then cooled to 16° C. and protein expression induced by the addition of isopropyl β-D-1-thiogalactopyranoside to a final concentration of 0.5 mM and the cultures shaken overnight for further 16 hours. Following expression, cell cultures were centrifuged at 5000×g for 20 min and cell pellet stored frozen at −70° C. Protein purification was initiated by thawing the cell pellet in Lysis buffer (25 mM Tris-HCl pH 8.0, 300 mM NaCl, 5 mM DTT, 2 mM MgCl2, 10 mM imidazole, 0.5 mg/ml lysozyme, benzonase endonuclease [EMD Millipore], 1 mM PMSF, complete protease inhibitor tablets EDTA-free [Roche]) using a ratio of 7 ml of buffer per 1 g of cells. Cells were further lysed by 3 passes through an ice cooled Avestin C5 cell crusher and then centrifuged at 48,000×g at 4° C. […] The IMAC column was then sequentially washed with IMAC Wash buffer 1 and IMAC Wash buffer 2 (25 mM Tris-HCl pH 8.0, 300 mM NaCl, 5 mM DTT, 20 mM Imidazole) and bound His-TEV-hSTING protein eluted with IMAC Elution buffer (25 mM Tris-HCl pH 8.0, 300 mM NaCl, 5 mM DTT, 250 mM Imidazole). […] Differential scanning fluorimetry (DSF) is a rapid screening method for identifying low-molecular-weight ligands that bind and, in doing so, stabilize (or sometimes destabilize) purified proteins (Niesen 2007). DSF monitors thermal unfolding of protein in the presence of a fluorescent dye and is typically performed using a real-time PCR instrument. The temperature at which a protein unfolds is measured by an increase in the fluorescence of a dye with affinity for hydrophobic parts of the protein that are gradually being exposed during unfolding. The fluorescence of the dye is quenched in aqueous environments, but when the dye associates with hydrophobic sites on unfolded protein, its fluorescence increases. The fluorescence intensity is plotted as a function of the temperature, generating a sigmoidal curve that can be described by a two-state transition. The inflection point of the transition curve (Tm) is calculated using simple equations such as that of Boltzmann. Thermal stability of STING protein (with and without bound ligand) was measured using previously described methodology (Seabrook & Newman, 2013), with samples tested in triplicate using 96-well PCR microplate (AB Gene, ABGAB-0600/W). […] Sealed plates were placed into Bio-Rad CFX96/C1000 thermocycler and FRET scanning mode (λ^excitation of 490 nm and reads at a λ^emission of 570 nm). Melting curves were recorded from 20° C. to 100° C. in 0.5° C. increments every 30 seconds with a read at each increment. Data were analysed using “Meltdown analysis” protocol described by Rosa (2015).

[1] = biological target: human HAQ isoform of STING (THP-1 STING Lucia ISG cells) (Homo sapiens (Human), UniProt Q86WV6, G230A/H232R/R293Q/R71H); assay: THP-1 STING Lucia ISG reporter cell line assay; type: cell-based; details: 24 h incubation, QUANTI-Luc luminescence
Chain of human HAQ isoform of STING (THP-1 STING Lucia ISG cells) (Q86WV6 whole entry R71H/G230A/H232R/R293Q, canonical isoform): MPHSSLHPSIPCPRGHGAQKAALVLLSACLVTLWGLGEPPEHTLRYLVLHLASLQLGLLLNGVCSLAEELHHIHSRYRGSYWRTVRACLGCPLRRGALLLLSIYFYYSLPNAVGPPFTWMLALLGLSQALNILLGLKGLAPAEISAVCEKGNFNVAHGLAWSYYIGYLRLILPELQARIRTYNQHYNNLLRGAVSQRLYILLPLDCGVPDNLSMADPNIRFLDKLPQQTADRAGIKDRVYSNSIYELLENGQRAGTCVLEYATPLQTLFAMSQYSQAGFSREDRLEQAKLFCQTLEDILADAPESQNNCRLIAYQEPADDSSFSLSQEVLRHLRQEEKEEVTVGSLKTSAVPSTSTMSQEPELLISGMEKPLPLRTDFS
Method: (§2) THP-1 STING Lucia ISG cells (InvivoGen #thpI-isg) were cultured in RPMI-1640 containing 2 mM L-glutamine, 25 mM HEPES, 100 μg/mL Normocin (InvivoGen) and 10% heat-inactivated FBS. Cells were seeded at a density of 7×10^5 cells/mL, maintained at 37° C./5% CO2, and passaged every 3-4 days. Selection pressure was maintained by the addition of 100 μg/mL Zeocin every second passage.
(§3) Assay conditions: cells were harvested and resuspended at a concentration of 5×10^5 cells/mL in fresh growth media. Of this cell preparation 20 μL per well was dispensed into 384 well cell culture plates (Greiner, #781098X) and incubated at 37° C./5% CO2 for 2 hours. Concentration Response Curves (commonly 11 doses) were prepared by 2.5 fold serial dilution starting from 10 mM compound stock solution in DMSO. Compound dilutions were transferred into the cell culture plates using a pintool (0.1 μL transfer), control wells were matched for DMSO. Positive control wells received ML RR—S2 CDA (Med Chem Express HY12885B) in 5 μL of media to a final concentration of 40 μM. All other wells received additional 5 μL of media only to equalise volume. The plates were incubated for 24 h at 37° C./5% CO2.
(§4) For the detection step, QUANTI-Luc (InvivoGen #rep-qlc1) was prepared according to manufacturer's instruction and 10 μL were added per well to the culture plates. Plates were shaken for ten seconds on an orbital shaker and left in the dark at room temperature for two minutes, before luminescence was read on a Perkin Elmer Envision plate reader.
(§5) Data analysis: Luminescence raw data was normalised % activity relative to the signal of the positive control wells and negative control wells which were not treated with compound. The following formula was used to calculate normalised % activity from raw signals: % activity=(sample−negative)/(positive−negative)
(§6) The THP-1 STING Lucia ISG cell EC50 provides an assessment of activity at the human HAQ isoform of STING. For assessing compound activity against the WT human STING isoform, an equivalent method was conducted where the cells used were THP-1-Dual KI-hSTING-R232 (InvivoGen #thpd-r232).

[2] = biological target: WT human STING isoform (THP-1-Dual KI-hSTING-R232 cells) (Homo sapiens (Human), UniProt Q86WV6, H232R); assay: THP-1-Dual KI-hSTING-R232 reporter cell line assay; type: cell-based; details: 24 h incubation, QUANTI-Luc luminescence
Chain of WT human STING isoform (THP-1-Dual KI-hSTING-R232 cells) (Q86WV6 whole entry H232R, canonical isoform): as the sequence (Q86WV6 whole entry R71H/G230A/H232R/R293Q, canonical isoform) above, with H71R, A230G, Q293R counted along it
Method: as §2, §3, §4, §5, §6

human STING (HAQ) [3] = assay: Differential scanning fluorimetry (DSF), huSTING (HAQ); type: binding; details: 2 μM protein, compound 100 μM; Tm with ligand minus Tm of protein alone (1% DMSO)
Method: as §1

human STING (HAQ) [4] = biological target: human STING (HAQ) (Homo sapiens, UniProt Q86WV6, G230A/H232R/R293Q); assay: as above; type: binding; details: read-out: DSF huSTING (HAQ) ΔTm (° C.)
Chain of human STING (HAQ) (Homo sapiens, UniProt Q86WV6, G230A/H232R/R293Q) (Q86WV6 whole entry G230A/H232R/R293Q, looked up): as the sequence (Q86WV6 whole entry R71H/G230A/H232R/R293Q, canonical isoform) above, with H71R counted along it
Method: as §1

[5] = 2 μM protein, compound 100 μM, Tm with ligand minus Tm of protein alone (1% DMSO)

Chain of human STING (WT) (Q86WV6 other isoform, or with tags, fused parts or gaps, stated change not applied): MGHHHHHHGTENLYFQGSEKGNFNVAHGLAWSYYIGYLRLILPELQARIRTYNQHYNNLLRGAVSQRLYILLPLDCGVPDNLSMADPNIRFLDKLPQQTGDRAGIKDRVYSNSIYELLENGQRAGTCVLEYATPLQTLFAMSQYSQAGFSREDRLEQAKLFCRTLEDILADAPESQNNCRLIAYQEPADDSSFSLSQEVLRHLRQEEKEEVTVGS

DSF huSTING (WT) ΔTm (° C.) (human STING (WT); [5])	EC50 [1]	EC50 [2]	DSF huSTING (HAQ) ΔTm (° C.) (human STING (HAQ) [3])	ΔTm at 100 µM (human STING (WT); [5])	ΔTm at 100 µM (human STING (HAQ) [4]; [5])	Compound	ΔTm at 100 µM (human STING (WT))	ΔTm at 100 µM (human STING (HAQ) [4])
6.58 °C	14900 nM	11700 nM	21.66 °C			COc1c(C(N)=O)ccc2c1nc(-c1c(I)cccc1C(=O)O)n2CCn1c(-c2c(I)cccc2C(=O)O)nc2c(OC)c(C(N)=O)ccc21 (single isomer, unassigned) [Example 19.2, 2,2′-(Ethane-1,2-diylbis(5-carbamoyl-4-methoxy-1H-benzo[d]imidazole-1,2-diyl))bis(3-iodobenzoic acid)]		
−6.70 °C	> 40000 nM	> 40000 nM	−5.65 °C			NC(=O)c1ccc2c(c1)nc(-c1c(Br)cccc1C(=O)O)n2CCn1c(-c2c(Br)cccc2C(=O)O)nc2cc(C(N)=O)ccc21 (single isomer, unassigned) [Example 29.2, 2,2′-(Ethane-1,2-diylbis(5-carbamoyl-1H-benzo[d]imidazole-1,2-diyl))bis(3-bromobenzoic acid)]		
	> 40000 nM	> 40000 nM				COC(=O)c1cc(Br)ccc1-c1nc2c(OC)c(C(N)=O)ccc2n1CCn1c(-c2ccc(Br)cc2C(=O)OC)nc2c(OC)c(C(N)=O)ccc21 [Example 13, Dimethyl 6,6′-(ethane-1,2-diylbis(5-carbamoyl-4-methoxy-1H-benzo[d]imidazole-1,2-diyl))bis(3-bromobenzoate)]		
	2650 nM	2550 nM		4.56 °C	28.3 °C	COc1c(C(N)=O)ccc2c1nc(-c1c(C(=O)O)ccc(Cl)c1F)n2CCn1c(-c2c(C(=O)O)ccc(Cl)c2F)nc2c(OC)c(C(N)=O)ccc21 [Example 12, 2,2′-(Ethane-1,2-diylbis(5-carbamoyl-4-methoxy-1H-benzo[d]imidazole-1,2-diyl))bis(4-chloro-3-fluorobenzoic acid)]		
	1310 nM	1990 nM		4.74 °C	9.15 °C	COc1c(C(N)=O)ccc2c1nc(-c1ccc(Br)cc1C(=O)O)n2CCn1c(-c2ccc(Br)cc2C(=O)O)nc2c(OC)c(C(N)=O)ccc21 [Example 14, 6,6′-(Ethane-1,2-diylbis(5-carbamoyl-4-methoxy-1H-benzo[d]imidazole-1,2-diyl))bis(3-bromobenzoic acid)]		
	497 nM	549 nM				COc1c(C(N)=O)ccc2c1nc(-c1ccc(Cl)cc1-c1nn[nH]n1)n2CCn1c(-c2c(F)cc(Cl)cc2C(=O)O)nc2c(OC)c(C(N)=O)ccc21 [Example 47, 2-(5-Carbamoyl-1-(2-(5-carbamoyl-2-(4-chloro-2-(2H-tetrazol-5-yl)phenyl)-4-methoxy-1H-benzo[d]imidazol-1-yl)ethyl)-4-methoxy-1H-benzo[d]imidazol-2-yl)-5-chloro-3-fluorobenzoic acid]		
	12600 nM	> 40000 nM		-6.6 °C	-2.19 °C	COc1c(C(N)=O)ccc2c1nc(-c1cc(F)ccc1C(=O)O)n2CCn1c(-c2cc(F)ccc2C(=O)O)nc2c(OC)c(C(N)=O)ccc21 [Example 28, 2,2′-(Ethane-1,2-diylbis(5-carbamoyl-4-methoxy-1H-benzo[d]imidazole-1,2-diyl))bis(4-fluorobenzoic acid)]		
	1550 nM	1430 nM		-2.49 °C	5.88 °C	COc1c(C(N)=O)ccc2c1nc(-c1cc(Cl)ccc1C(=O)O)n2CCn1c(-c2cc(Cl)ccc2C(=O)O)nc2c(OC)c(C(N)=O)ccc21 [Example 7, 2,2′-(Ethane-1,2-diylbis(5-carbamoyl-4-methoxy-1H-benzo[d]imidazole-1,2-diyl))bis(4-chlorobenzoic acid)]		
				-0.85 °C	1.6 °C	COc1c(C(N)=O)ccc2c1nc(-c1ccc(C#N)cc1C(=O)O)n2CCn1c(-c2ccc(C#N)cc2C(=O)O)nc2c(OC)c(C(N)=O)ccc21 [Example 51, 2-(5-Carbamoyl-1-(2-(5-carbamoyl-2-(2-carboxy-4-cyanophenyl)-4-methoxy-1H-benzo[d]imidazol-1-yl)ethyl)-4-methoxy-1H-benzo[d]imidazol-2-yl)-5-cyanobenzoic acid]		
	11300 nM	10500 nM		2.62 °C	6.17 °C	COc1c(C(N)=O)ccc2c1nc(-c1ccc(F)cc1C(=O)O)n2CCn1c(-c2ccc(F)cc2C(=O)O)nc2c(OC)c(C(N)=O)ccc21 [Example 27, 6,6′-(Ethane-1,2-diylbis(5-carbamoyl-4-methoxy-1H-benzo[d]imidazole-1,2-diyl))bis(3-fluorobenzoic acid)]		
	> 40000 nM	> 40000 nM		-4.35 °C	0.86 °C	NC(=O)c1ccc2c(c1)nc(-c1ccc(Cl)cc1C(=O)O)n2CCn1c(-c2ccc(Cl)cc2C(=O)O)nc2cc(C(N)=O)ccc21 [Example 39, 6,6′-(Ethane-1,2-diylbis(5-carbamoyl-1H-benzo[d]imidazole-1,2-diyl))bis(3-chlorobenzoic acid)]		

Compound	DSF huSTING (WT) ΔTm (° C.) (human STING (WT); [5])	EC50 [1]	EC50 [2]	DSF huSTING (HAQ) ΔTm (° C.) (human STING (HAQ) [3])	ΔTm at 100 µM (human STING (WT); [5])	ΔTm at 100 µM (human STING (HAQ) [4]; [5])	ΔTm at 100 µM (human STING (WT))	ΔTm at 100 µM (human STING (HAQ) [4])
COc1c(C(N)=O)ccc2c1nc(-c1cc(Cl)c(Cl)cc1C(=O)O)n2CCn1c(-c2cc(Cl)c(Cl)cc2C(=O)O)nc2c(OC)c(C(N)=O)ccc21 [Example 8, 6,6′-(Ethane-1,2-diylbis(5-carbamoyl-4-methoxy-1H-benzo[d]imidazole-1,2-diyl))bis(3,4-dichlorobenzoic acid)]		540 nM	426 nM				6.38 °C	23.2 °C

Source: patent publication US12415785B2, “Compound modulators of sting” (CTXT PTY LTD, priority 2019, dated 2025)
